Values joined by “and” are separate entries in the source; they are usually repeats but may differ in a detail not shown here. Equal values may be shown once.
How the values were obtained:
[1] = Dynamic microPET/CT imaging
Experimental: The scans were performed on a trimodal small animal scanner Albira Si PET/SPECT/CT Preclinical Imaging System (Bruker, Billerica, MA, USA) in a group of Wistar rats anesthetized with isoflurane (induction 4%, maintenance 1.5-2%).

[2] = Dosimetry: human absorbed dose extrapolated from rat biodistribution (OLINDA/EXM); conditions: human estimate extrapolated from rats
From the text: The pharmacokinetics data from ex vivo biodistribution studies in rats were extrapolated to humans using the simplest allometric scaling model to estimate an effective dose in mSv/MBq. The dose calculation was done using computer software for internal dose assessment OLINDA/EXM® (Version 1.1, copyright Vanderbilt University, 2007).
This work estimated the human absorbed radiation dose based on a detailed description of activity organ distribution data for normal rats. […] Additionally, the obtained theoretical values for examined cardiotracers were compared with [^18F]flurpiridaz absorbed dose calculated in exercise stress subjects in humans (Table 6).

In the case of CN(C)c1ccc2cc3ccc(N(C)C)cc3[n+](CC[18F])c2c1 [[^18F]SYN2], the “SUV in the myocardium, plateau” value ([1]; after 6 min) is reported as 3.5, the “SUV in the liver” value ([1]; at 45 min) is reported as 1.9 and the “SUV in the myocardium at the beginning” value ([1]; dynamic microPET) is reported as 4.0. The “SUVmax in the liver” value ([1]; dynamic microPET) was 2.9, the “average standardized uptake value, myocardial uptake” value ([1]; dynamic microPET) was 3.8 and the “Absorbed dose per administrated activity, Adrenals” value [2] was 8.06E-03 mSv/MBq. The “Absorbed dose per administrated activity, Brain” value [2] was 2.84E-03 mSv/MBq, the “Absorbed dose per administrated activity, Breasts” value [2] was 2.93E-03 mSv/MBq and the “Absorbed dose per administrated activity, Gallbladder Wall” value [2] was 8.01E-03 mSv/MBq. For the same molecule, the “Absorbed dose per administrated activity, Heart Wall” value [2] was 0.0415 mSv/MBq and 0.042 mSv/MBq and 4.15E-02 mSv/MBq, the “Absorbed dose per administrated activity, Kidneys” value [2] was 0.0704 mSv/MBq and 0.070 mSv/MBq and 7.04E-02 mSv/MBq and the “Absorbed dose per administrated activity, Liver” value [2] was 1.17E-02 mSv/MBq. The “Absorbed dose per administrated activity, Lower Large Intestine Wall” value [2] was 1.18E-02 mSv/MBq, the “Absorbed dose per administrated activity, Lungs” value [2] was 2.16E-02 mSv/MBq and the “Absorbed dose per administrated activity, Muscle” value [2] was 1.03E-02 mSv/MBq. For the same molecule, the “Absorbed dose per administrated activity, Osteogenic Cells” value [2] was 4.02E-03 mSv/MBq, the “Absorbed dose per administrated activity, Ovaries” value [2] was 7.10E-03 mSv/MBq and the “Absorbed dose per administrated activity, Pancreas” value [2] was 0.0285 mSv/MBq and 2.85E-02 mSv/MBq. For the same molecule, the “Absorbed dose per administrated activity, Red Marrow” value [2] was 4.77E-03 mSv/MBq, the “Absorbed dose per administrated activity, Skin” value [2] was 2.65E-03 mSv/MBq and the “Absorbed dose per administrated activity, Small Intestine” value [2] was 1.84E-02 mSv/MBq. The “Absorbed dose per administrated activity, Spleen” value [2] was 2.13E-02 mSv/MBq, the “Absorbed dose per administrated activity, Stomach Wall” value [2] was 1.19E-02 mSv/MBq and the “Absorbed dose per administrated activity, Testes” value [2] was 4.97E-03 mSv/MBq. The “Absorbed dose per administrated activity, Thymus” value [2] was 5.48E-03 mSv/MBq, the “Absorbed dose per administrated activity, Thyroid” value [2] was 2.49E-02 mSv/MBq and the “Absorbed dose per administrated activity, Total Body” value [2] was 7.67E-03 mSv/MBq. For the same molecule, the “Absorbed dose per administrated activity, Upper Large Intestine Wall” value [2] was 2.01E-02 mSv/MBq, the “Absorbed dose per administrated activity, Urinary Bladder Wall” value [2] was 5.29E-03 mSv/MBq and the “Absorbed dose per administrated activity, Uterus” value [2] was 6.27E-03 mSv/MBq. The “Effective Dose Equivalent” value [2] was 1.71E-02 mSv/MBq and the “Effective dose” value [2] was 0.0109 mSv/MBq and 1.09E-02 mSv/MBq.
